Results taken from patent publication US10689401B2, “C5-C6-oxacyclic fused iminothiazine dioxide compounds bearing an ether linker as BACE inhibitors, compositions, and their use” (Merck Sharp & Dohme Corp., priority 2016, dated 2020).

How the values were obtained:
[1] = biological target: purified human autoBACE-2 (Homo sapiens (Human), UniProt Q9Y5Z0); assay: BACE-2 Assay (BACE-HTRF assay); type: biochemical; conditions: Ki calculated from IC50 using the Cheng-Prusoff equation; QSY7-EISEVNLDAEFC-Eu-amide substrate, pH 5.0
Procedure: Inhibitor IC50s at purified human autoBACE-2 are determined in a time-resolved endpoint proteolysis assay that measures hydrolysis of the QSY7-EISEVNLDAEFC-Eu-amide FRET peptide substrate (BACE-HTRF assay). BACE-mediated hydrolysis of this peptide results in an increase in relative fluorescence (RFU) at 620 nm after excitation with 320 nm light. Inhibitor compounds, prepared at 3× the desired final concentration in 1×BACE assay buffer (20 mM sodium acetate pH 5.0, 10% glycerol, 0.1% Brij-35) supplemented with 7.5% DMSO are preincubated with an equal volume of autoBACE-2 enzyme diluted in 1×BACE assay buffer (final enzyme concentration 1 nM) in black 384-well NUNC plates for 30 minutes at 30° C. […] DMSO is present at 5% final concentration in the assay. Following laser excitation of sample wells at 320 nm, the fluorescence signal at 620 nm is collected for 400 ms following a 50 μs delay on a RUBYstar HTRF plate reader (BMG Labtechnologies). Raw RFU data is normalized to maximum (1.0 nM BACE/DMSO) and minimum (no enzyme/DMSO) RFU values. IC50s are determined by nonlinear regression analysis (sigmoidal dose response, variable slope) of percent inhibition data with minimum and maximum values set to 0 and 100 percent respectively. Similar IC50s are obtained when using raw RFU data. The Ki values are calculated from the IC50 using the Cheng-Prusoff equation.

[2] = biological target: Recombinant human soluble BACE1 catalytic domain (Homo sapiens (Human), UniProt P56817); assay: BACE1 HTRF FRET Assay; type: biochemical; conditions: Ki calculated from IC50 using the Cheng-Prusoff equation; QSY7-APPswe-Eu substrate, pH 5.0; read-out: BACE-1 Ki
Text: Reagents: Na^+-Acetate pH 5.0; 1% Brij-35; Glycerol; Dimethyl Sulfoxide (DMSO); Recombinant human soluble BACE1 catalytic domain (>95% pure); APP Swedish mutant peptide substrate (QSY7-APP^swe-Eu): QSY7-EISEVNLDAEFC-Europium-amide.
A homogeneous time-resolved FRET assay can be used to determine IC50 values for inhibitors of the soluble human BACE1 catalytic domain. This assay monitors the increase of 620 nm fluorescence that resulted from BACE1 cleavage of an APPswedish APP^swe mutant peptide FRET substrate (QSY7-EISEVNLDAEFC-Europium-amide). This substrate contains an N-terminal QSY7 moiety that serves as a quencher of the C-terminal Europium fluorophore (620 nm Em). In the absence of enzyme activity, 620 nm fluorescence is low in the assay and increased linearly over 3 hours in the presence of uninhibited BACE1 enzyme. Inhibition of BACE1 cleavage of the QSY7-APP^swe-Eu substrate by inhibitors is manifested as a suppression of 620 nm fluorescence.
Varying concentrations of inhibitors at 3× the final desired concentration in a volume of 10 ul are preincubated with purified human BACE1 catalytic domain (3 nM in 10 μl) for 30 minutes at 30° C. in reaction buffer containing 20 mM Na-Acetate pH 5.0, 10% glycerol, 0.1% Brij-35 and 7.5% DSMO. Reactions are initiated by addition of 10 μl of 600 nM QSY7-APP^swe-Eu substrate (200 nM final) to give a final reaction volume of 30 μl in a 384 well Nunc HTRF plate. The reactions are incubated at 30° C. for 1.5 hours. The 620 nm fluorescence is then read on a Rubystar HTRF plate reader (BMG Labtechnologies) using a 50 millisecond delay followed by a 400 millisecond acquisition time window. Inhibitor IC50 values are derived from non-linear regression analysis of concentration response curves. Ki values are then calculated from IC50 values using the Cheng-Prusoff equation using a previously determined […] of 8 μM for the QSY7-APP^swe-Eu substrate at BACE1.

Chain of purified human autoBACE-2 (Q9Y5Z0 63-518): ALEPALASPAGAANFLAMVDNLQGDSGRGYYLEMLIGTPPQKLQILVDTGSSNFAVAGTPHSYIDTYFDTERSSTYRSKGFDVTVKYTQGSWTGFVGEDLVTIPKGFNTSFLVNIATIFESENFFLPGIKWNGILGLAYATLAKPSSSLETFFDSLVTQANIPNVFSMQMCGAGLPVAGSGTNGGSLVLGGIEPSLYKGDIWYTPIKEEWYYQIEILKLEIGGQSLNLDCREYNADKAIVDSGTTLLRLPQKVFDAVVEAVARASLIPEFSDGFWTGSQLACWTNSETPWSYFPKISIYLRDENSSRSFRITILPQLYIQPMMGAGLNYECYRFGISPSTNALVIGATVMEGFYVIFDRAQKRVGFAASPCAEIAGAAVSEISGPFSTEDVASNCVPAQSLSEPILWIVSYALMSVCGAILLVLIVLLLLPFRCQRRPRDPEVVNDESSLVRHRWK
Chain of Recombinant human soluble BACE1 catalytic domain (P56817 75-416): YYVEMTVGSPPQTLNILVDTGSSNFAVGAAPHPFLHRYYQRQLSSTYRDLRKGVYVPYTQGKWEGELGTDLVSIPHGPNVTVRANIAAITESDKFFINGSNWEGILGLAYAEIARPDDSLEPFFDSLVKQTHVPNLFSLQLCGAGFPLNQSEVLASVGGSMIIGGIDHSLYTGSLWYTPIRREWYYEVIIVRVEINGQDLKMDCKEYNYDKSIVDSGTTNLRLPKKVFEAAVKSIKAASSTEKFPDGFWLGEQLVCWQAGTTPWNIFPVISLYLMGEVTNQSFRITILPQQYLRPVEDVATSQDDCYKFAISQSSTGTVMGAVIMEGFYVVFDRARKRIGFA

| SMILES | Ki [1] [nM] | Ki [2] [nM] |
| --- | --- | --- |
| CC1(C)C[C@@H]2[C@](c3cc(OCC4CC4)ccc3F)(CO1)NC(=N)C(C)(C)S2(=O)=O [Example 22, (4aS,8aR)-4a-[5-(cyclopropylmethoxy)-2-fluorophenyl]-2,2,7,7-tetramethyltetrahydro-2H,5H-pyrano[4,3-b][1,4]thiazin-3(4H)-imine 1,1-dioxide] | 35.6 | 120 |
| CC(C)COc1ccc(F)c([C@]23COC(C)(C)C[C@H]2S(=O)(=O)C(C)(C)C(=N)N3)c1 [Example 23, (4aS,8aR)-4a-[2-fluoro-5-(2-methylpropoxy)phenyl]-2,2,7,7-tetramethyltetrahydro-2H,5H-pyrano[4,3-b][1,4]thiazin-3(4H)-imine 1,1-dioxide] | 66.7 | 172 |
| CC1(C)C[C@@H]2[C@](c3cc(OC4CCC4)ccc3F)(CO1)NC(=N)C(C)(C)S2(=O)=O [Example 24] | 109 | 183 |
| CC(C)[C@H]1C[C@@H]2[C@](c3ccccc3F)(CO1)NC(=N)C(C)(C)S2(=O)=O [Example 25, (4aS,7R,8aR)-4a-(2-fluorophenyl)-2,2-dimethyl-7-(propan-2-yl)tetrahydro-2H,5H-pyrano[4,3-b][1,4]thiazin-3(4H)-imine 1,1-dioxide] | 195 | 185 |
